Data as given in patent publication US8642766B2, “Synthesis of (+) cortistatin A and related compounds” (priority 2008, dated 2014).

What was measured:
HUVECs = test: Assay to determine activity against HUVECs (carried out by Pfizer, Inc.); type: cell-based, human; conditions: for IC50: synthetic material, tested by Pfizer, Inc.
Text: [Aoki et al., J. Am. Chem. Soc. 2006, 128:3148-3149]

[1] = system: human umbilical vein endothelial cells (HUVECs); conditions: cited from earlier work

SMILES	IC50 (HUVECs)	IC50 (HUVECs; Homo sapiens, HUVEC)	biological activity compared with (+)cortistatin A (HUVECs; statement in words, refers to the HUVEC results discussed below it)	IC50 ([1]; natural cortistatin A tested by Kobayashi group, Aoki et al., J. Am. Chem. Soc. 2006, read-out: IC50 against HUVECs, natural cortistatin A)	IC50 (testing cells)/IC50 (HUVECs) ([1]; selectivity versus healthy or cancerous cell lines, Aoki et al. 2006)
CN(C)[C@H]1C[C@@]23CC[C@@]4(O2)C(=CC[C@]2(C)[C@@H](c5ccc6ccncc6c5)CC[C@H]24)C=C3[C@@H](O)[C@@H]1O [17-epi-cortistatin A]	> 1000 nM	–	–	–	–
CN(C)[C@H]1C[C@@]23CC[C@@]4(O2)C(=CC[C@]2(C)C(c5ccc6ccncc6c5)=CC[C@H]24)C=C3[C@@H](O)[C@@H]1O [Δ^16-cortistatin A]	–	3.88 nM	substantially the same as that of (+)cortistatin A	–	–
CN(C)[C@H]1C[C@@]23CC[C@@]4(O2)C(=CC[C@]2(C)[C@@H](c5ccc6ccncc6c5)CC[C@H]24)C=C3[C@@H](O)[C@@H]1O [cortistatin A, (+)-cortistatin A]	–	2.43 nM	–	1.8 nM	≥ 3300
